Data from ChEMBL document CHEMBL1201861, “Genomics of Drug Sensitity in Cancer screening data, Wellcome Trust Sanger Institute”.

Tests used:
Experiment in all cases: cells
Details in all cases: Homo sapiens
SW 954 = type: functional, cell-based;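 note: growth inhibition of SW954 human cancer cells, read out as cell viability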
Description: SANGER: Inhibition of human SW954 cell growth in a cell viability assay.

OVCAR-5 = type: functional, cell-based;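 note: growth inhibition of human OVCAR-5 cells, read out with a cell viability assay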
Description: SANGER: Inhibition of human OVCAR-5 cell growth in a cell viability assay.

KYSE-150 cell line = type: functional, cell-based;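 note: growth inhibition of human KYSE-150 cells, read out with a cell viability assay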
Description: SANGER: Inhibition of human KYSE-150 cell growth in a cell viability assay.

MPP-89 = type: functional, cell-based;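 note: growth inhibition of human MPP-89 cells, read out with a cell viability assay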
Description: SANGER: Inhibition of human MPP-89 cell growth in a cell viability assay.

no-10 = type: functional, cell-based;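 note: growth inhibition of no-10 cells, read out with a cell viability assay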
Description: SANGER: Inhibition of human no-10 cell growth in a cell viability assay.

OMC-1 = type: functional, cell-based;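 note: growth inhibition of the OMC-1 cell line, measured by a cell viability assay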
Description: SANGER: Inhibition of human OMC-1 cell growth in a cell viability assay.

ATN-1 = type: functional, cell-based;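 note: growth inhibition of human ATN-1 cells, read out with a cell viability assay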
Description: SANGER: Inhibition of human ATN-1 cell growth in a cell viability assay.

BB49-HNC = type: functional, cell-based;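 note: cell viability assay read-out, reported as inhibition of BB49-HNC cell growth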
Description: SANGER: Inhibition of human BB49-HNC cell growth in a cell viability assay.

LS-513 = type: functional, cell-based
Description: SANGER: Inhibition of human LS-513 cell growth in a cell viability assay.

EW-16 = type: functional, cell-based;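 note: growth inhibition of human EW-16 cells, read out as cell viability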
Description: SANGER: Inhibition of human EW-16 cell growth in a cell viability assay.

HT1197 = type: functional, cell-based, HT-1197
Description: SANGER: Inhibition of human HT-1197 cell growth in a cell viability assay.

SF-268 = type: functional, cell-based;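 note: growth inhibition of SF-268 cells determined with a cell viability assay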
Description: SANGER: Inhibition of human SF268 cell growth in a cell viability assay.

HEL = type: functional, cell-based;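 note: growth inhibition of HEL cells, read out with a cell viability assay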
Description: SANGER: Inhibition of human HEL cell growth in a cell viability assay.

COLO-741 = type: functional, cell-based
Description: SANGER: Inhibition of human COLO-741 cell growth in a cell viability assay.

ML-2 = type: functional, cell-based;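 note: growth inhibition of ML-2 cells, measured with a cell viability readout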
Description: SANGER: Inhibition of human ML-2 cell growth in a cell viability assay.

EW-11 = type: functional, cell-based;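 note: growth inhibition of human EW-11 cells, measured with a cell viability assay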
Description: SANGER: Inhibition of human EW-11 cell growth in a cell viability assay.

SK-UT-1 = type: functional, cell-based;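 note: growth inhibition of SK-UT-1 cells, measured by a cell viability assay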
Description: SANGER: Inhibition of human SK-UT-1 cell growth in a cell viability assay.

LB373-MEL-D = type: functional, cell-based;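 note: growth inhibition of the cell line, read out in a cell viability assay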
Description: SANGER: Inhibition of human LB373-MEL-D cell growth in a cell viability assay.

NCI-H1299 = type: functional, cell-based;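 note: growth inhibition of human NCI-H1299 cells, read out by a cell viability assay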
Description: SANGER: Inhibition of human NCI-H1299 cell growth in a cell viability assay.

NCI-H1648 = type: functional, cell-based;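 note: cell viability assay measuring inhibition of NCI-H1648 cell growth, from the Sanger screening data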
Description: SANGER: Inhibition of human NCI-H1648 cell growth in a cell viability assay.

OS-RC-2 = type: functional, cell-based;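 note: growth inhibition of human OS-RC-2 cells, measured by a cell viability assay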
Description: SANGER: Inhibition of human OS-RC-2 cell growth in a cell viability assay.

KURAMOCHI = type: functional, cell-based;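 note: growth inhibition of KURAMOCHI cells, read out with a cell viability assay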
Description: SANGER: Inhibition of human KURAMOCHI cell growth in a cell viability assay.

TK-10 = type: functional, cell-based;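 note: growth inhibition of TK-10 cells, read out in a cell viability assay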
Description: SANGER: Inhibition of human TK10 cell growth in a cell viability assay.

MIA PaCa-2 = type: functional, cell-based;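 note: growth inhibition of MIA PaCa-2 cells, read out with a cell viability assay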
Description: SANGER: Inhibition of human MIA-PaCa-2 cell growth in a cell viability assay.

MKN-1 = type: functional, cell-based;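 note: growth inhibition of human MKN1 cells, read out by a cell viability measurement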
Description: SANGER: Inhibition of human MKN1 cell growth in a cell viability assay.

MZ1-PC = type: functional, cell-based;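 note: cell viability assay measuring growth inhibition of human MZ1-PC cells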
Description: SANGER: Inhibition of human MZ1-PC cell growth in a cell viability assay.

MeWo = type: functional, cell-based;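 note: growth inhibition of MeWo cells, determined by a cell viability readout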
Description: SANGER: Inhibition of human Mewo cell growth in a cell viability assay.

EW-3 = type: functional, cell-based;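 note: cell viability assay read-out, IC50 reflects inhibition of growth of the EW-3 cells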
Description: SANGER: Inhibition of human EW-3 cell growth in a cell viability assay.

LU-139 = type: functional, cell-based
Description: SANGER: Inhibition of human LU-139 cell growth in a cell viability assay.

VA-ES-BJ = type: functional, cell-based;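 note: growth inhibition of the VA-ES-BJ cell line, read out by a cell viability assay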
Description: SANGER: Inhibition of human VA-ES-BJ cell growth in a cell viability assay.

NB5 = type: functional, cell-based;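 note: growth inhibition of NB5 cells, read out as cell viability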
Description: SANGER: Inhibition of human NB5 cell growth in a cell viability assay.

EW-24 = type: functional, cell-based;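 note: human EW-24 cancer cell line, growth inhibition read out via a cell viability assay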
Description: SANGER: Inhibition of human EW-24 cell growth in a cell viability assay.

no-11 = type: functional, cell-based;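 note: growth inhibition of human NO-11 cells, read out with a cell viability assay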
Description: SANGER: Inhibition of human no-11 cell growth in a cell viability assay.

ES4 = type: functional, cell-based;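 note: growth inhibition of human ES4 cells, read out by a cell viability assay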
Description: SANGER: Inhibition of human ES4 cell growth in a cell viability assay.

OCI-AML2 = type: functional, cell-based;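 note: growth inhibition of OCI-AML2 cells, read out with a cell viability assay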
Description: SANGER: Inhibition of human OCI-AML2 cell growth in a cell viability assay.

HCE-T = type: functional, cell-based;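 note: cell viability assay read-out, reporting inhibition of HCE-T cell growth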
Description: SANGER: Inhibition of human HCE-T cell growth in a cell viability assay.

BFTC-909 = type: functional, cell-based
Description: SANGER: Inhibition of human BFTC-909 cell growth in a cell viability assay.

ES6 = type: functional, cell-based;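 note: growth inhibition of human ES6 cells, read out with a cell viability assay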
Description: SANGER: Inhibition of human ES6 cell growth in a cell viability assay.

MFH-ino = type: functional, cell-based;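 note: growth inhibition of human MFH-ino cells, read out by a cell viability assay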
Description: SANGER: Inhibition of human MFH-ino cell growth in a cell viability assay.

EC-GI-10 = type: functional, cell-based
Description: SANGER: Inhibition of human EC-GI-10 cell growth in a cell viability assay.

NOMO-1 = type: functional, cell-based;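 note: growth inhibition of human NOMO-1 cells measured by a cell viability assay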
Description: SANGER: Inhibition of human NOMO-1 cell growth in a cell viability assay.

EW-13 = type: functional, cell-based;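 note: growth inhibition of EW-13 cells, read out with a cell viability assay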
Description: SANGER: Inhibition of human EW-13 cell growth in a cell viability assay.

NCI-H446 = type: functional, cell-based;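 note: growth inhibition of NCI-H446 cells determined by a cell viability assay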
Description: SANGER: Inhibition of human NCI-H446 cell growth in a cell viability assay.

MN-60 = type: functional, cell-based;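 note: growth inhibition of the MN-60 cell line, determined with a cell viability assay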
Description: SANGER: Inhibition of human MN-60 cell growth in a cell viability assay.

SK-MEL-1 = type: functional, cell-based;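 note: growth inhibition of human SK-MEL-1 cells, read out by a cell viability assay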
Description: SANGER: Inhibition of human SK-MEL-1 cell growth in a cell viability assay.

NCI-H1304 = type: functional, cell-based;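 note: growth inhibition of the cancer cell line, measured in a cell viability assay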
Description: SANGER: Inhibition of human NCI-H1304 cell growth in a cell viability assay.

GI-1 = type: functional, cell-based
Description: SANGER: Inhibition of human GI-1 cell growth in a cell viability assay.

SNU-5 = type: functional, cell-based;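 note: cell viability readout used to measure growth inhibition in human NCI-SNU-5 cells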
Description: SANGER: Inhibition of human NCI-SNU-5 cell growth in a cell viability assay.

DU-4475 = type: functional, cell-based
Description: SANGER: Inhibition of human DU-4475 cell growth in a cell viability assay.

COLO-824 = type: functional, cell-based
Description: SANGER: Inhibition of human COLO-824 cell growth in a cell viability assay.

C8166 = type: functional, cell-based;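 note: growth inhibition of human C8166 cells measured by a cell viability assay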
Description: SANGER: Inhibition of human C8166 cell growth in a cell viability assay.

FTC-133 = type: functional, cell-based
C2BBe1 = type: functional, cell-based;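 note: growth inhibition of C2BBe1 cells, read out through a viability assay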
Description: SANGER: Inhibition of human C2BBe1 cell growth in a cell viability assay.

RS4-11 = type: functional, cell-based;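 note: growth inhibition of RS4-11 cells, read out by a cell viability assay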
Description: SANGER: Inhibition of human RS4-11 cell growth in a cell viability assay.

LNCaP-Clone-FGC = type: functional, cell-based
Description: SANGER: Inhibition of human LNCaP-Clone-FGC cell growth in a cell viability assay.

SK-OV-3 = type: functional, cell-based;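 note: growth inhibition of SK-OV-3 human cells, read out with a cell viability assay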
Description: SANGER: Inhibition of human SK-OV-3 cell growth in a cell viability assay.

TE-6 = type: functional, cell-based;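 note: growth inhibition of TE-6 cells, read out with a cell viability assay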
Description: SANGER: Inhibition of human TE-6 cell growth in a cell viability assay.

LS-123 = type: functional, cell-based
Description: SANGER: Inhibition of human LS-123 cell growth in a cell viability assay.

A498 = type: functional, cell-based;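 note: growth inhibition of human A498 cells, read out with a cell viability assay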
Description: SANGER: Inhibition of human A498 cell growth in a cell viability assay.

ETK-1 = type: functional, cell-based;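 note: growth inhibition of human ETK-1 cells, read out with a cell viability assay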
Description: SANGER: Inhibition of human ETK-1 cell growth in a cell viability assay.

AGS = type: functional, cell-based;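 note: growth inhibition of AGS cells, determined with a cell viability assay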
Description: SANGER: Inhibition of human AGS cell growth in a cell viability assay.

KE-37 = type: functional, cell-based
Description: SANGER: Inhibition of human KE-37 cell growth in a cell viability assay.

BT-474 = type: functional, cell-based
Description: SANGER: Inhibition of human BT-474 cell growth in a cell viability assay.

DMS-79 = type: functional, cell-based
Description: SANGER: Inhibition of human DMS-79 cell growth in a cell viability assay.

CCRF-CEM = type: functional, cell-based
Description: SANGER: Inhibition of human CCRF-CEM cell growth in a cell viability assay.

SMILES: Cn1cc(/C=C2\C(=O)Nc3cccnc32)c2ccccc21
- IC50 (SW 954): > 2000 nM
- IC50 (OVCAR-5): > 2000 nM
- IC50 (KYSE-150 cell line): > 2000 nM
- IC50 (MPP-89): > 2000 nM
- IC50 (no-10): > 2000 nM
- IC50 (OMC-1): > 2000 nM
- IC50 (ATN-1): > 2000 nM
- IC50 (BB49-HNC): > 2000 nM
- IC50 (LS-513): > 2000 nM
- IC50 (EW-16): > 2000 nM
- IC50 (HT1197): > 2000 nM
- IC50 (SF-268): > 2000 nM
- IC50 (HEL): > 2000 nM
- IC50 (COLO-741): > 2000 nM
- IC50 (ML-2): > 2000 nM
- IC50 (EW-11): > 2000 nM
- IC50 (SK-UT-1): > 2000 nM
- IC50 (LB373-MEL-D): > 2000 nM
- IC50 (NCI-H1299): > 2000 nM
- IC50 (NCI-H1648): > 2000 nM
- IC50 (OS-RC-2): > 2000 nM
- IC50 (KURAMOCHI): > 2000 nM
- IC50 (TK-10): > 2000 nM
- IC50 (MIA PaCa-2): > 2000 nM
- IC50 (MKN-1): > 2000 nM
- IC50 (MZ1-PC): > 2000 nM
- IC50 (MeWo): > 2000 nM
- IC50 (EW-3): > 2000 nM
- IC50 (LU-139): > 2000 nM
- IC50 (VA-ES-BJ): > 2000 nM
- IC50 (NB5): > 2000 nM
- IC50 (EW-24): > 2000 nM
- IC50 (no-11): > 2000 nM
- IC50 (ES4): > 2000 nM
- IC50 (OCI-AML2): > 2000 nM
- IC50 (HCE-T): > 2000 nM
- IC50 (BFTC-909): > 2000 nM
- IC50 (ES6): > 2000 nM
- IC50 (MFH-ino): > 2000 nM
- IC50 (EC-GI-10): > 2000 nM
- IC50 (NOMO-1): > 2000 nM
- IC50 (EW-13): > 2000 nM
- IC50 (NCI-H446): > 2000 nM
- IC50 (MN-60): > 2000 nM
- IC50 (SK-MEL-1): > 2000 nM
- IC50 (NCI-H1304): > 2000 nM
- IC50 (GI-1): > 2000 nM
- IC50 (SNU-5): > 2000 nM
- IC50 (DU-4475): > 2000 nM
- IC50 (COLO-824): > 2000 nM
- IC50 (C8166): > 2000 nM
- IC50 (FTC-133): > 2000 nM
- IC50 (C2BBe1): > 2000 nM
- IC50 (RS4-11): > 2000 nM
- IC50 (LNCaP-Clone-FGC): > 2000 nM
- IC50 (SK-OV-3): 397 nM
- IC50 (TE-6): > 2000 nM
- IC50 (LS-123): > 2000 nM
- IC50 (A498): > 2000 nM
- IC50 (ETK-1): > 2000 nM
- IC50 (AGS): > 2000 nM
- IC50 (KE-37): > 2000 nM
- IC50 (BT-474): > 2000 nM
- IC50 (DMS-79): > 2000 nM
- IC50 (CCRF-CEM): > 2000 nM
